Experiments:
[1] = test system: Rhabdomyosarcoma cell; assay: Concentration required for 50% cytotoxicity against human rhabdomyosarcoma cell lines; format: functional
[2] = test system: Coxsackievirus; assay: inhibition concentration required against coxsackievirus B4 was determined by plaque reduction assay; format: functional, organism-based
[3] = test system: Coxsackievirus; assay: inhibition concentration required against coxsackievirus B5 was determined by plaque reduction assay; format: functional, organism-based
[4] = test system: Coxsackievirus; assay: inhibition concentration required against coxsackievirus B6 was determined by plaque reduction assay; format: functional, organism-based
[5] = test system: Enterovirus A71; assay: inhibition concentration required against human enterovirus 71 (2086) genotype C was determined by plaque reduction assay; format: functional, organism-based; conditions: Enterovirus A
[6] = test system: Enterovirus A71; assay: inhibition concentration required against human enterovirus 71 (2231) genotype C was determined by plaque reduction assay; format: functional, organism-based; conditions: Enterovirus A
[7] = test system: Enterovirus A71; assay: inhibition concentration required against human enterovirus 71 (BrCr) genotype A was determined by plaque reduction assay; format: functional, organism-based
[8] = test system: Enterovirus A71; assay: inhibition concentration required against human enterovirus 71 (1743) genotype B was determined by plaque reduction assay; format: functional, organism-based; conditions: Enterovirus A
[9] = test system: Enterovirus A71; assay: inhibition concentration required against human enterovirus 71 strain 4643 was determined by plaque reduction assay; format: functional, organism-based; conditions: Enterovirus A
[10] = test system: Echovirus; assay: inhibition concentration required against echovirus 29 was determined by plaque reduction assay; format: functional, organism-based
[11] = test system: Coxsackievirus; assay: inhibition concentration required against coxsackievirus A10 was determined by plaque reduction assay; format: functional, organism-based
[12] = test system: Coxsackievirus; assay: inhibition concentration required against coxsackievirus A16 was determined by plaque reduction assay; format: functional, organism-based
[13] = test system: Coxsackievirus; assay: inhibition concentration required against coxsackievirus A24 was determined by plaque reduction assay; format: functional, organism-based
[14] = test system: Echovirus; assay: inhibition concentration required against echovirus 9 was determined by plaque reduction assay; format: functional, organism-based
[15] = test system: Coxsackievirus; assay: inhibition concentration required against coxsackievirus A9 was determined by plaque reduction assay; format: functional, organism-based
[16] = test system: Coxsackievirus; assay: inhibition concentration required against coxsackievirus B1 was determined by plaque reduction assay; format: functional, organism-based
[17] = test system: Coxsackievirus; assay: inhibition concentration required against coxsackievirus B3 was determined by plaque reduction assay; format: functional, organism-based
[18] = test system: Coxsackievirus; assay: inhibition concentration required against coxsackievirus B2 was determined by plaque reduction assay; format: functional, organism-based
[19] = test system: Enterovirus D68; assay: inhibition concentration required against human enterovirus 68 was determined by plaque reduction assay; conditions: Enterovirus D

IC50 [2]: 3.14 µM
IC50 [3]: 4.18 µM
IC50 [4]: > 25 µM
IC50 [5]: 0.07 µM
IC50 [6]: 0.08 µM
IC50 [7]: 0.05 µM
IC50 [8]: 0.09 µM
IC50 [9]: 0.03 µM
IC50 [10]: 0.03 µM
IC50 [11]: 8.61 µM
IC50 [12]: > 25 µM
IC50 [13]: 0.14 µM
IC50 [14]: 0.3 µM
IC50 [15]: 0.04 µM
IC50 [16]: > 25 µM
IC50 [17]: > 25 µM
IC50 [18]: > 25 µM
IC50 [19]: > 25 µM
Structure (SMILES): O=C1N(CCCCCOc2ccc(-c3ccc(Cl)cc3)cc2)CCN1c1ccncc1
CC50 [1]: > 12.5 µM

From ChEMBL document CHEMBL1137889, “Synthesis and antienteroviral activity of a series of novel, oxime ether-containing pyridyl imidazolidinones” (Bioorg Med Chem Lett, 2004)
